Holding throughout (format): cell-based
Assay [1] concerns MOLT-4 cells. As to the kind of experiment: Cell viability assay, MTS, 48 h, MOLT-4. The settings on record: Homo sapiens, MOLT-4, 48 h, 48 h, read-out: MOLT-4 IC50 (nM, 48 h). The method, then:
(§1) Acute lymphoblastic leukemia cells (MOLT-4 and RS4; 11) or small cell lung cancer (NCI-H146 or simply H146) were incubated with increasing concentrations of Bcl-xL degraders for 48 h. Cell viability was measured by tetrazolium-based MTS assay.

In assay [2] the test system is RS4;11 cells. Briefly: Cell viability assay, MTS, 48 h, RS4;11. As to conditions: Homo sapiens, RS4-11, 48 h, 48 h, read-out: RS4, 11 IC50 (nM, 48 h). The protocol:
as §1

The test system of assay [3] is NCI-H146 cells. As to the kind of experiment: Cell viability assay, MTS, 48 h, NCI-H146. As to conditions: Homo sapiens. The method, then:
as §1

The subject of assay [4] is human platelets. As to the kind of experiment: Human platelet viability, 48 h. The settings on record: Platelet.
In assay [5] the test system is caspase-3 and PARP. As to the kind of experiment: Downstream apoptotic mechanism, western blot of caspase-3 and PARP in MOLT-4 cells. The settings on record: after 16 h treatment. The protocol: […] At the end of incubation, cells were harvested for western blot analysis of cleaved and full length caspase-3 and poly (ADP) ribose polymerase (PARP). The antibodies for cleaved caspase-3 (Cat #9661) and PARP (Cat #9532) were purchased from Cell Signaling Technology.
(In general: In western blotting, separated proteins are transferred to a membrane and probed.)

Assay [6] deals with T1, Bcl-xL (Homo sapiens, UniProt Q07817). Briefly: Protein degradation assay in MOLT-4 cells (western blot). As to conditions: 16 h, read-out: DC50 (concentration with 50% degradation) of Bcl-xL. The arrangement: endogenous in cells; host or cells: MOLT-4 cells. The protocol:
(§2) MOLT4 cells and human platelets were incubated with increasing concentrations of test compounds for 16 h. The cells were harvested and lysed in RIPA lysis buffer supplemented with protease and phosphatase inhibitor cocktails. An equal amount of protein (20 μg/lane) was resolved on a pre-cast 4-20% SDS-PAGE gel. Proteins were subsequently transferred to NOVEX PVDF membranes by electrophoresis. The membranes were blocked in blocking buffer (5% non-fat dry milk in TBS-T), and incubated with primary antibodies (at optimized concentrations) overnight at 4° C. After three washings in TBS-T, the membranes were incubated with an appropriate HRP-conjugated secondary antibody for 1 h at room temperature. After extensive washing for three times, the proteins of interest were detected with ECL western blotting detection reagents and recorded with autoradiography (Pierce Biotech, Rockford, Ill., USA). The primary antibodies for Bcl-xL (Cat #2762), Bcl-2 (Cat #2872), Mcl-1 (Cat #5453) and β-actin (Cat #4970) were purchased from Cell Signaling technology. The relative band intensity was measured using ImageJ software and normalized to b-actin. The DC50 (concentration with 50% degradation) was calculated using GraphPad Prism.
MOLT-4 cells and human platelets were incubated with increasing concentrations of test compounds for 16 h. The cells were harvested and lysed in RIPA lysis buffer supplemented with protease and phosphatase inhibitor cocktails. An equal amount of protein (20 μg/lane) was resolved on a pre-cast 4-20% SDS-PAGE gel. Proteins were subsequently transferred to NOVEX PVDF membranes by electrophoresis. […] After extensive washing for three times, the proteins of interest were detected with ECL western blotting detection reagents and recorded with autoradiography (Pierce Biotech, Rockford, Ill., USA). […] The relative band intensity was measured using ImageJ software and normalized to β-actin. The DC50 was calculated using GraphPad Prism.

Assay [7] addresses T1, Bcl-xL. Briefly: Protein degradation assay in human platelets (western blot). As to conditions: 16 h. The arrangement: endogenous in cells; host or cells: human platelets. The protocol:
as §2, with “The primary antibodies for Bcl-xL (Cat #2762), Bcl-2 (Cat #2872), Mcl-1 (Cat #5453) and β-actin (Cat #4970) were purchased from Cell Signaling technology.” left out
MOLT-4 cells and human platelets were incubated with increasing concentrations of test compounds for 16 h. […] After extensive washing for three times, the proteins of interest were detected with ECL western blotting detection reagents and recorded with autoradiography (Pierce Biotech, Rockford, Ill., USA). […]

T1 sequence (Q07817 whole entry): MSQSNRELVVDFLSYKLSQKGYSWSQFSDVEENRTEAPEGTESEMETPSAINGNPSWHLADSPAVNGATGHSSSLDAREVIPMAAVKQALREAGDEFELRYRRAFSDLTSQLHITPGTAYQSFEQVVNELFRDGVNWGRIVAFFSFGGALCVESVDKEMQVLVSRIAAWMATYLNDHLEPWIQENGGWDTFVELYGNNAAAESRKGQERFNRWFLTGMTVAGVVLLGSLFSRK

For `Cc1ncsc1-c1ccc([C@H](C)NC(=O)[C@@H]2C[C@@H](O)CN2C(=O)[C@@H](NC(=O)CCCCCCCCC(=O)NCC2(C)CCC(c3ccc(Cl)cc3)=C(CN3CCN(c4ccc(C(=O)NS(=O)(=O)c5ccc(N[C@H](CCN6CCOCC6)CSc6ccccc6)c(S(=O)(=O)C(F)(F)F)c5)cc4)CC3)C2)C(C)(C)C)cc1` (stereo partly drawn) [degrader #5, N1-((4′-chloro-4-methyl-6-((4-(4-(((4-(((R)-4-morpholino-1-(phenylthio)butan-2-yl)amino)-3-((trifluoromethyl)sulfonyl)phenyl)sulfonyl)carbamoyl)phenyl)piperazin-1-yl)methyl)-2,3,4,5-tetrahydro-[1,1′-biphenyl]-4-yl)methyl)-N10-((S)-1-((2S,4R)-4-hydroxy-2-(((S)-1-(4-(4-methylthiazol-5-yl)phenyl)ethyl)carbamoyl)pyrrolidin-1-yl)-3,3-dimethyl-1-oxobutan-2-yl)decanediamide], the IC50 (in general, the concentration that gives 50% inhibition) in assay [1] was found to be 31 nM; in assay [2] it was 22.2 nM; in assay [3], 88 nM; in assay [4], 3.5 µM. The “cleavage of caspase-3 and PARP” value in assay [5] was “induced cleavage of caspase-3 and PARP”. For the same molecule, the DC50 in assay [6] is 21.5 nM. For the same molecule, the “Bcl-xL levels in human platelets” value in assay [7] is given as “did not affect Bcl-xL levels”.

The values above are taken from patent publication US20220169628A1 (University of Florida Research Foundation, Incorporated, priority 2019, published 2022).
